Results published in patent US20250186409A1, “5-AMINOHEXAHYDRO-6,7,8-TRIHYDROXY-3H-OXAZOLO[3,4-A]PYRIDIN-3-ONE DERIVATIVES DERIVATIVES AS TLR4 MODULATORS FOR THE TREATMENT OF IMMUNE DISEASES” (CONSEJO SUPERIOR DE INVESTIGACIONES CIENTÍFICAS (CSIC), priority 2021, published 2025).
“Also recorded” adds a separate entry of the source.

Experiments:
[1] = system: glycosidases (human fibroblast lysates); assay: Stability of the glycosidic linkage to glycosidases on incubation with human fibroblast lysates; format: in vitro ADME; details: 4 h, 37° C., pH 4.5, compound solution 200 μM, gas chromatography
Experimental: The stability of the glyosidic linkage in compounds 2, 4, 6, 8, 10, 12, 14, 16, 18, 20, 22, 25, 27, 29, 32 and 34 selected as representative examples, upon incubation with human fibroblast lysates for 4 h was checked. For such purpose, cells were scraped into ice-cold H2O (10^6 cells mL^−1) and lysed by sonication. Insoluble materials were removed by centrifugation at 15,000 rpm for 5 min and protein concentrations were determined with Protein Assay Rapid Kit (WAKO, Tokyo, Japan). 10 μL of the lysates in 0.1% Triton X-100 in distilled water were incubated at 37° C. with 20 μL of the compound solution (200 μM) in 0.1 M citrate buffer, pH 4.5. In control experiments, the activity of several lysosomas glycosidases was confirmed using fluorescent substrates. The substrates were 4-methylumbelliferone (4-MU)-conjugated β-D-glucopyranoside (for GCase), α-D-glucopyranoside (for α-glucosidase), α-D-galactopyranoside (for α-Galase) and β-D-galactopyranoside (for β-galactosidase). The liberated 4-methylumbelliferone was measured in the black-well plate with a Perkin Elmer Luminescence Spectrometer (excitation wavelength: 340 nm; emission: 460 nm). No traces of the free polysubstituted 2-oxa-3-oxoindolizidine, which would result from hydrolysis of the glycolipid mimetics, was detected by gas chromatography upon trimethylsilylation, confirming the stability of the compounds to the action of the glycosidases.

[2] = system: Splenocytes; assay: Suppression of LPS-induced inflammation (splenocytes in vitro); format: cell-based, mouse; details: splenocytes treated concurrently with compound and LPS, FIG. 1
Experimental: FIG. 1. […] Splenocytes were treated concurrently with the compounds of the invention and LPS to assess the suppressive function of compounds on LPS-induced inflammation, with several compounds showing prominent suppressive function.
(§1) The whole spleen was surgically removed from a mouse and mechanically dissociated into a single cell suspension of splenocytes, which were then cultured in the complete RPMI 1640 medium (cRPMI). Human peripheral blood mononuclear cells (PBMCs) from healthy volunteers were collected from whole blood through gradient-centrifugation with Histopaque-1077 (Sigma-Aldrich).
Splenocytes were treated concurrently with the compounds of the invention and LPS to assess the suppressive function of compounds on LPS-induced inflammation.

[3] = system: ERK and p38 of the MAPK family, JNK and STAT3; assay: Signal transduction by multiplex bead array (phosphorylation versus LPS treatment alone); format: cell-based; details: compared to LPS treatment alone, 30 min post-treatment, FIG. 4
From the text: FIG. 4. […] Compounds 4 and 14, the representative compounds of the invention, were examined in term of signal transduction to explore how the new compounds exert their suppressive effect, using the multiplex bead array.
Using the multiplex bead array, we examined how the new compounds might exert their suppressive effect in term of signal transduction.

[4] = system: bone marrow-derived macrophages (BMDM); assay: Suppression of LPS-induced inflammation (BMDM in vitro); format: cell-based; details: FIG. 2; for suppression of IL-6 / suppression of TNFα: LPS-induced, BMDM; for suppression of IL-6: 50 μM; for suppression of TNFα: 10 and 50 μM
From the text: Since macrophage is the major responder to LPS-induced inflammation, we assessed the capability of selected compounds to suppress LPS-induced inflammation in bone marrow-derived macrophages (BMDM).

[5] = system: OVA-induced AHR mouse model; assay: OVA-induced airway hyperreactivity (AHR) and airway inflammation mouse model; format: in vivo; details: for suppression of OVA-induced airway hyperreactivity (AHR): OVA-induced AHR mouse model, FIG. 7; for suppression of IL-4 mRNA level in lungs / suppression of IL-13 mRNA level in lungs: lung mRNA, FIG. 10
Experimental: For ovalbumin (OVA) challenge, mice were sensitized intraperitoneally (i.p.) with 50 μg of OVA with 2% alhydrogel adjuvant (InvivoGen). Mice were challenged three times with 50 μg of OVA on day 7 post-sensitization, either daily or every other day. Mice were sacrificed the day after the last OVA challenge.
Mice were anesthetized with 100 mg per kg body weight pentobarbital (Sigma-Aldrich), tracheotomised and mechanically ventilated via the FinePointe RC system (Buxco Research Systems, Wilmington, NC). Lung function was assessed by measuring lung resistance and dynamic compliance in response to increasing doses of aerosolized methacholine (1.25-40 mg/mL, Sigma-Aldrich).
Upon exposure of the trachea, the lungs were lavaged twice with 1 mL of PBS supplemented with 2% fetal calf serum (FCS). BALF was pooled and BAL cells were pelleted by centrifugation and fixed onto cytospin slides. The slides were stained with Diff-Quik solution (Polysciences Inc) and BAL differential cell count was performed.
Using the Th2 OVA-induced AHR mouse model, we assessed the capability of selected compounds 14 and 29 in suppressing Th2 inflammation.

[6] = system: B6 mice; assay: Adjuvancy function of compounds in vivo (serum IFNγ and IL-4); details: FIG. 11
Experimental: FIG. 11. […] The adjuvancy capability of the selected compound 29 in vivo was assessed by measuring the serum level of IFNγ and IL-4 induced after injecting them into B6 mice.
Besides assessing the ability of the new compounds to suppress inflammation, we also looked into their function to act as adjuvants, i.e. their ability to promote desirable immunological trends in the development of vaccines. We measured the in vivo adjuvancy capability of selected compounds 29 in inducing IFNγ and IL-4 in B6 mice (FIG. 11).

[7] = system: B6 mice; assay: Suppression of LPS-induced inflammation in vivo; details: injected twice in a half hour time after LPS-treatment, FIG. 3
Experimental: FIG. 3. […] The in vivo capability of compound 29 in suppressing LPS-induced inflammation in B6 mice was assessed as indicated in the scheme.
To determine the anti-inflammatory function in vivo, we assessed the capability of compound 29 in suppressing LPS-induced inflammation in B6 mice.

[8] = system: Splenocytes; assay: Immune-stimulating function of compounds alone (splenocytes in vitro); format: cell-based, mouse; details: splenocytes treated with compound alone, FIG. 6
Experimental: FIG. 6. […] Splenocytes were treated with the compounds of the invention alone to assess the immune-stimulating function of the compounds.
as §1
Splenocytes were treated with the compounds of the invention alone to assess the immune-stimulating function of the compounds by measuring their ability to promote the secretions of IFN-γ and IL-4.

[9] = bronchoalveolar lavage fluid, FIG. 8

For CCOP(=O)(N[C@@H]1C(O)[C@@H](O)[C@H](O)C2COC(=O)N21)OCC (stereo partly shown) [Compound 2], the “free polysubstituted 2-oxa-3-oxoindolizidine from hydrolysis of the glycolipid mimetic (stability to glycosidases)” value [1] was “No traces”.

With CCCCCCCCOP(=O)(N[C@@H]1C(O)[C@@H](O)[C@H](O)C2COC(=O)N21)OCCCCCCCC (stereo partly shown) [Compound 4] the “suppression of LPS-induced inflammation” value [2] was “prominent inflammation-suppressing function”, the “free polysubstituted 2-oxa-3-oxoindolizidine from hydrolysis of the glycolipid mimetic (stability to glycosidases)” value [1] was “No traces” and the “phosphorylation of ERK” value [3] was “significantly reduced”. For the same molecule, the “phosphorylation of JNK” value [3] was “but not JNK”, the “phosphorylation of p38” value [3] was “significantly reduced” and the “suppression of LPS-induced inflammation in BMDM” value [4] was “efficient in suppressing LPS-induced inflammation”. The “suppression of IL-6” value [4] was “significant suppression” and the “suppression of TNFα” value [4] was “significant suppression”.

With CCCCCCCCCCCCOP(=O)(N[C@@H]1C(O)[C@@H](O)[C@H](O)C2COC(=O)N21)OCCCCCCCCCCCC (stereo partly shown) [Compound 6] the “suppression of LPS-induced inflammation” value [2] was “prominent inflammation-suppressing function” and the “free polysubstituted 2-oxa-3-oxoindolizidine from hydrolysis of the glycolipid mimetic (stability to glycosidases)” value [1] was “No traces”.

With CCCCNS(=O)(=O)N[C@@H]1C(O)[C@@H](O)[C@H](O)C2COC(=O)N21 (stereo partly shown) [Compound 8] the “free polysubstituted 2-oxa-3-oxoindolizidine from hydrolysis of the glycolipid mimetic (stability to glycosidases)” value [1] was “No traces”.

For CCCCCCCCNS(=O)(=O)N[C@@H]1C(O)[C@@H](O)[C@H](O)C2COC(=O)N21 (stereo partly shown) [Compound 10], the “free polysubstituted 2-oxa-3-oxoindolizidine from hydrolysis of the glycolipid mimetic (stability to glycosidases)” value [1] was “No traces”.

For CCCCCCCCCCCCNS(=O)(=O)N[C@@H]1C(O)[C@@H](O)[C@H](O)C2COC(=O)N21 (stereo partly shown) [Compound 12], the “free polysubstituted 2-oxa-3-oxoindolizidine from hydrolysis of the glycolipid mimetic (stability to glycosidases)” value [1] was “No traces”.

With CCCCCCCCCCCCCCCCNS(=O)(=O)N[C@@H]1C(O)[C@@H](O)[C@H](O)C2COC(=O)N21 (stereo partly shown) [Compound 14] the “suppression of LPS-induced inflammation” value [2] was “prominent inflammation-suppressing function”, the “suppression of OVA-induced airway hyperreactivity (AHR)” value [5] was “can suppress AHR onset” and the “suppression of IL-4 mRNA level in lungs” value [5] was “significantly suppressed”. The “suppression of IL-13 mRNA level in lungs” value [5] was “significantly suppressed”, the “free polysubstituted 2-oxa-3-oxoindolizidine from hydrolysis of the glycolipid mimetic (stability to glycosidases)” value [1] was “No traces” and the “phosphorylation of ERK” value [3] was “significantly reduced”. For the same molecule, the “phosphorylation of JNK” value [3] was “but not JNK”, the “phosphorylation of STAT3” value [3] was “significant reduction” and the “phosphorylation of p38” value [3] was “significantly reduced”. The “suppression of LPS-induced inflammation in BMDM” value [4] was “efficient in suppressing LPS-induced inflammation”, the “suppression of IL-6” value [4] was “significant suppression” and the “suppression of TNFα” value [4] was “significant suppression”.

For CCCCCCCCOS(=O)(=O)N[C@@H]1C(O)[C@@H](O)[C@H](O)C2COC(=O)N21 (stereo partly shown) [Compound 16], the “free polysubstituted 2-oxa-3-oxoindolizidine from hydrolysis of the glycolipid mimetic (stability to glycosidases)” value [1] was “No traces”.

For CCCCCCCCCCCCOS(=O)(=O)N[C@@H]1C(O)[C@@H](O)[C@H](O)C2COC(=O)N21 (stereo partly shown) [Compound 18], the “free polysubstituted 2-oxa-3-oxoindolizidine from hydrolysis of the glycolipid mimetic (stability to glycosidases)” value [1] was “No traces”.

CCCCCCCCCCCCCCCCOS(=O)(=O)N[C@@H]1C(O)[C@@H](O)[C@H](O)C2COC(=O)N21 (stereo partly shown) [Compound 20] was tested, and the “free polysubstituted 2-oxa-3-oxoindolizidine from hydrolysis of the glycolipid mimetic (stability to glycosidases)” value [1] was “No traces”.

With CCCCCCCCS(=O)(=O)N[C@@H]1C(O)[C@@H](O)[C@H](O)C2COC(=O)N21 (stereo partly shown) [Compound 22] the “free polysubstituted 2-oxa-3-oxoindolizidine from hydrolysis of the glycolipid mimetic (stability to glycosidases)” value [1] was “No traces”.

For CCCCCCCCNC(=[Se])N[C@@H]1C(O)[C@@H](O)[C@H](O)C2COC(=O)N21 (stereo partly shown) [Compound 25], the “free polysubstituted 2-oxa-3-oxoindolizidine from hydrolysis of the glycolipid mimetic (stability to glycosidases)” value [1] was “No traces”.

With CCCCCCCCCCCCNC(=S)N[C@@H]1C(O)[C@@H](O)[C@H](O)C2COC(=O)N21 (stereo partly shown) [Compound 27] the “suppression of LPS-induced inflammation” value [2] was “prominent inflammation-suppressing function” and the “free polysubstituted 2-oxa-3-oxoindolizidine from hydrolysis of the glycolipid mimetic (stability to glycosidases)” value [1] was “No traces”.

For CCCCCCCCCCCCNC(=[Se])N[C@@H]1C(O)[C@@H](O)[C@H](O)C2COC(=O)N21 (stereo partly shown) [Compound 29], the “suppression of LPS-induced inflammation” value [2] was “prominent inflammation-suppressing function”, the “suppression of OVA-induced airway hyperreactivity (AHR)” value [5] was “suppress AHR significantly” and the “suppression of IL-4 level in BALF” value [5, 9] was “suppress both IL-13 and IL-4 levels significantly”. The “suppression of IL-13 level in BALF” value [5, 9] was “suppress both IL-13 and IL-4 levels significantly”, the “suppression of IL-4 mRNA level in lungs” value [5] was “significantly suppressed” and the “suppression of IL-13 mRNA level in lungs” value [5] was “significantly suppress; also recorded: significantly suppressed”. For the same molecule, the “suppression of IL-13 protein level in lungs” value ([5]; lung protein, FIG. 9) was “significantly suppress; also recorded: significant suppression”, the “free polysubstituted 2-oxa-3-oxoindolizidine from hydrolysis of the glycolipid mimetic (stability to glycosidases)” value [1] was “No traces” and the “induction of serum IFNγ” value ([6]; 2 hours after injection) was “significant capability”. The “induction of serum IL-4” value ([6]; 2 hours after injection) was “significant capability”, the “serum IFNγ level” value ([6]; 18 hours after injection) was “significant detectable level” and the “suppression of LPS-induced serum TNFα” value [7] was “significantly suppressed; also recorded: significantly suppressing”. The IFNγ secretion [8] was “effective in promoting; also recorded: induced significant IFNγ secretion” and the IL-4 secretion [8] was “but not IL-4”.

CCCCCCCCCCCCCCCCNC(=[Se])N[C@@H]1C(O)[C@@H](O)[C@H](O)C2COC(=O)N21 (stereo partly shown) [Compound 32] was tested, and the “free polysubstituted 2-oxa-3-oxoindolizidine from hydrolysis of the glycolipid mimetic (stability to glycosidases)” value [1] was “No traces”.

For CCCCCCCCCCCCOC(=S)N[C@@H]1C(O)[C@@H](O)[C@H](O)C2COC(=O)N21 (stereo partly shown) [Compound 34], the “free polysubstituted 2-oxa-3-oxoindolizidine from hydrolysis of the glycolipid mimetic (stability to glycosidases)” value [1] was “No traces”.
